Reference: US12404241B2 (Celgene Corporation, priority 2018, dated 2025)
Structures can show the parent of a compound that is named as a salt.

Molecular target: T1, AR (Homo sapiens, UniProt P10275)
T1 construct: endogenous in cells; host or cells: VCaP cells
T1 sequence (P10275 1-920): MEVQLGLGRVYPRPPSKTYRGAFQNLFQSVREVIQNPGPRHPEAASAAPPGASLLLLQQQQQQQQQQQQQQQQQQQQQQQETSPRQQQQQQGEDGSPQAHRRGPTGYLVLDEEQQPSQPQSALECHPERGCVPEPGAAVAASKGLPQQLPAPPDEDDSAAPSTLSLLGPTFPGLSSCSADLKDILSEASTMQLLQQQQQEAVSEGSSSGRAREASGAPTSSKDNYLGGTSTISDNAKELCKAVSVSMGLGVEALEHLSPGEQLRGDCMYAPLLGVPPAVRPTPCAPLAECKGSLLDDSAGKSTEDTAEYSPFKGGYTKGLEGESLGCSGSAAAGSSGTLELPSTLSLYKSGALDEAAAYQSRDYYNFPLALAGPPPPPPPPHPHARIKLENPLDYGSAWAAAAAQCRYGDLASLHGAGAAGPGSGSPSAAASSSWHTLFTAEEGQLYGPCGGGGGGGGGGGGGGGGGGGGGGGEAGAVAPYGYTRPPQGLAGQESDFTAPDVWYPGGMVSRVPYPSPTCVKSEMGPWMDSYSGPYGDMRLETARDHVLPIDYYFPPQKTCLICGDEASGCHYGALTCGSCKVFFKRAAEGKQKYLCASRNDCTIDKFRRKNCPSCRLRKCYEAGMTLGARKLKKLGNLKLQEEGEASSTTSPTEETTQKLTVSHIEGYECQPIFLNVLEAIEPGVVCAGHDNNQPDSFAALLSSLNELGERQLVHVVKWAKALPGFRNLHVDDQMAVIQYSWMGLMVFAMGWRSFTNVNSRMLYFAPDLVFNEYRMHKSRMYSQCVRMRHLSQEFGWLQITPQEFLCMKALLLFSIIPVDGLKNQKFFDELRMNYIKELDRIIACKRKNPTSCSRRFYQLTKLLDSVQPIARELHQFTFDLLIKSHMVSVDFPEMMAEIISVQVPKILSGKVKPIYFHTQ
Assay: VCAP AR Degradation Assay
Assay type: cell-based
Conditions: for Y (AR degradation efficiency, % of DMSO control): class symbols *; for DC50: class symbols A-C, read-out: DC50
Method in brief: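 AR protein in lysates quantified by sandwich ELISA after 24 h exposure of VCaP cells at 37 °C to 10 concentrations (1:3 steps, 5 μM top, final). Four-parameter logistic fit of percent-of-DMSO levels gave DC50 (50% degradation), EC50 and minimal AR level Y.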

| SMILES | Y (AR degradation efficiency, % of DMSO control) | DC50 |
| --- | --- | --- |
| CCc1cc(N2C(=S)N(c3ccc(C#N)c(C(F)(F)F)c3)C(=O)C2(C)C)ccc1CCCN1CCN(CC(=O)Nc2cc(F)cc(NC3CCC(=O)NC3=O)c2)CC1 (stereo not shown) [Example 88, 2-(4-(3-(4-(3-(4-cyano-3-(trifluoromethyl)phenyl)-5,5-dimethyl-4-oxo-2-thioxoimidazolidin-1-yl)-2-ethylphenyl)propyl)piperazin-1-yl)-N-(3-(2,6-dioxopiperidin-3-ylamino)-5-fluorophenyl)acetamide] | * (0<Y<=25%) | < 100 nM |
| CCc1cc(N2C(=S)N(c3ccc(C#N)c(C(F)(F)F)c3)C(=O)C2(C)C)ccc1OCCN1CCN(CC(=O)Nc2cc(F)cc(NC3CCC(=O)NC3=O)c2)CC1 (stereo not shown) [Example 61, 2-(4-(2-(4-(3-(4-cyano-3-(trifluoromethyl)phenyl)-5,5-dimethyl-4-oxo-2-thioxoimidazolidin-1-yl)-2-ethylphenoxy)ethyl)piperazin-1-yl)-N-(3-(2,6-dioxopiperidin-3-ylamino)-5-fluorophenyl)acetamide] | * (0<Y<=25%) | < 100 nM |
| CCc1cc(N2C(=S)N(c3ccc(C#N)c(C(F)(F)F)c3)C(=O)C2(C)C)ccc1OCCN1CCN(CC(=O)Nc2cccc(NC3CCC(=O)NC3=O)c2)[C@@H](CO)C1 (stereo partly shown) [Example 51] | *** (35%<Y<50%) | 100 to 500 nM |
| C[C@H](C(=O)Nc1cccc(NC2CCC(=O)NC2=O)c1)N1CCN(CCOc2ccc(N3C(=S)N(c4ccc(C#N)c(C(F)(F)F)c4)C(=O)C3(C)C)cc2Cl)CC1 (stereo partly shown) [Example 25, hydrochloride] | *** (35%<Y<50%) | < 100 nM |
| CC(C)c1cc(N2C(=S)N(c3ccc(C#N)c(C(F)(F)F)c3)C(=O)C2(C)C)ccc1OCCN1C[C@@H](C)N(CC(=O)Nc2cc(Cl)cc(NC3CCC(=O)NC3=O)c2)[C@@H](C)C1 (stereo partly drawn) [Example 208, N-(3-chloro-5-(2,6-dioxopiperidin-3-ylamino)phenyl)-2-((2S,6R)-4-(2-(4-(3-(4-cyano-3-(trifluoromethyl)phenyl)-5,5-dimethyl-4-oxo-2-thioxoimidazolidin-1-yl)-2-isopropylphenoxy)ethyl)-2,6-dimethylpiperazin-1-yl)acetamide] | * (0<Y<=25%) | 100 to 500 nM |
| CCc1cc(N2C(=S)N(c3cnc(C#N)c(C(F)(F)F)c3)C(=O)C2(C)C)ccc1O[C@H](C)CN1C[C@@H](C)N(CC(=O)Nc2cccc(NC3CCC(=O)NC3=O)c2)[C@@H](C)C1 (single isomer, unassigned) [Example 239] | * (0<Y<=25%) | < 100 nM |
| CCc1cc(N2C(=S)N(c3cnc(C#N)c(C(F)(F)F)c3)C(=O)C2(C)C)ccc1OCCN1CCN([C@@H](C)C(=O)Nc2cccc(NC3CCC(=O)NC3=O)c2)CC1 (stereo partly drawn) [Example 118, (2S)-2-(4-(2-(4-(3-(6-cyano-5-(trifluoromethyl)pyridin-3-yl)-5,5-dimethyl-4-oxo-2-thioxoimidazolidin-1-yl)-2-ethylphenoxy)ethyl)piperazin-1-yl)-N-(3-(2,6-dioxopiperidin-3-ylamino)phenyl)propanamide] | * (0<Y<=25%) | < 100 nM |
| CCc1cc(N2C(=S)N(c3ccc(C#N)c(C(F)(F)F)c3)C(=O)C2(C)C)ccc1OCCN1CCN(CC(=O)Nc2cccc(NC3CCC(=O)NC3=O)c2)C[C@@H]1C (stereo partly shown) [Example 43, hydrochloride] | * (0<Y<=25%) | < 100 nM |
| CCc1cc(N2C(=S)N(c3cnc(C#N)c(C(F)(F)F)c3)C(=O)C2(C)C)ccc1OCCN1CCN([C@H](C)C(=O)Nc2cc(Cl)cc(NC3CCC(=O)NC3=O)c2)CC1 (stereo partly drawn) [Example 191, (2R)-N-(3-chloro-5-(2,6-dioxopiperidin-3-ylamino)phenyl)-2-(4-(2-(4-(3-(6-cyano-5-(trifluoromethyl)pyridin-3-yl)-5,5-dimethyl-4-oxo-2-thioxoimidazolidin-1-yl)-2-ethylphenoxy)ethyl)piperazin-1-yl)propanamide] | * (0<Y<=25%) | < 100 nM |
| CCc1cc(N2C(=S)N(c3ccc(C#N)c(C(F)(F)F)c3)C(=O)C2(C)C)ccc1OCCN1C[C@@H](C)N(CC(=O)Nc2cccc(NC3CCC(=O)NC3=O)c2)C[C@@H]1C (stereo partly drawn) [Example 121, 2-((2R,5S)-4-(2-(4-(3-(4-cyano-3-(trifluoromethyl)phenyl)-5,5-dimethyl-4-oxo-2-thioxoimidazolidin-1-yl)-2-ethylphenoxy)ethyl)-2,5-dimethylpiperazin-l-yl)-N-(3-(2,6-dioxopiperidin-3-ylamino)phenyl)acetamide] | * (0<Y<=25%) | < 100 nM |
| CCc1cc(N2C(=S)N(c3cnc(C#N)c(C(F)(F)F)c3)C(=O)C23CCC3)ccc1OCCN1C[C@H]2CC[C@@H]1CN2CC(=O)Nc1cccc(NC2CCC(=O)NC2=O)c1 (stereo partly drawn) [Example 182, 2-((1R,4R)-5-(2-(4-(7-(6-cyano-5-(trifluoromethyl)pyridin-3-yl)-8-oxo-6-thioxo-5,7-diazaspiro[3.4]octan-5-yl)-2-ethylphenoxy)ethyl)-2,5-diazabicyclo[2.2.2]octan-2-yl)-N-(3-(2,6-dioxopiperidin-3-ylamino)phenyl)acetamide] | ** (25%<Y<=35%) | 100 to 500 nM |
| CCc1cc(N2C(=S)N(c3ccc(C#N)c(C(F)(F)F)c3)C(=O)C2(C)C)ccc1OCCN1CCN(CC(=O)Nc2cccc(NC3CCC(=O)NC3=O)c2Cl)CC1 (stereo not shown) [Example 35, hydrochloride] | ** (25%<Y<=35%) | 100 to 500 nM |
| CC1(C)C(=O)N(c2ccc(C#N)c(C(F)(F)F)c2)C(=S)N1c1ccc(OCCN2CCN(CC(=O)Nc3cc(Cl)cc(NC4CCC(=O)NC4=O)c3)CC2)c(CCF)c1 (stereo not shown) [Example 136, N-(3-chloro-5-(2,6-dioxopiperidin-3-ylamino)phenyl)-2-(4-(2-(4-(3-(4-cyano-3-(trifluoromethyl)phenyl)-5,5-dimethyl-4-oxo-2-thioxoimidazolidin-1-yl)-2-(2-fluoroethyl)phenoxy)ethyl)piperazin-1-yl)acetamide] | * (0<Y<=25%) | < 100 nM |
| C[C@@H]1CN(CC(=O)Nc2cccc(NC3CCC(=O)NC3=O)c2)[C@H](C)CN1CCOc1ccc(N2C(=S)N(c3ccc(C#N)c(C(F)(F)F)c3)C(=O)C2(C)C)cc1C1CC1 (stereo partly drawn) [Example 203, 2-((2R,5R)-4-(2-(4-(3-(4-cyano-3-(trifluoromethyl)phenyl)-5,5-dimethyl-4-oxo-2-thioxoimidazolidin-1-yl)-2-cyclopropylphenoxy)ethyl)-2,5-dimethylpiperazin-1-yl)-N-(3-(2,6-dioxopiperidin-3-ylamino)phenyl)acetamide] | * (0<Y<=25%) | < 100 nM |
| CCc1cc(N2C(=S)N(c3cnc(C#N)c(C(F)(F)F)c3)C(=O)C2(C)C)ccc1OCCN1CCN(C2(C(=O)Nc3cc(Cl)cc(NC4CCC(=O)NC4=O)c3)CC2)CC1 (stereo not shown) [Example 165, N-(3-chloro-5-(2,6-dioxopiperidin-3-ylamino)phenyl)-1-(4-(2-(4-(3-(6-cyano-5-(trifluoromethyl)pyridin-3-yl)-5,5-dimethyl-4-oxo-2-thioxoimidazolidin-1-yl)-2-ethylphenoxy)ethyl)piperazin-1-yl)cyclopropanecarboxamide] | * (0<Y<=25%) | < 100 nM |
| C[C@@H]1CN(CCOc2ccc(N3C(=S)N(c4cnc(C#N)c(C(F)(F)F)c4)C(=O)C34CCC4)cc2C2CC2)C[C@H](C)N1CC(=O)Nc1cccc(NC2CCC(=O)NC2=O)c1 (stereo partly drawn) [Example 196, 2-((2S,6R)-4-(2-(4-(7-(6-cyano-5-(trifluoromethyl)pyridin-3-yl)-8-oxo-6-thioxo-5,7-diazaspiro[3.4]octan-5-yl)-2-cyclopropylphenoxy)ethyl)-2,6-dimethylpiperazin-1-yl)-N-(3-(2,6-dioxopiperidin-3-ylamino)phenyl)acetamide] | * (0<Y<=25%) | < 100 nM |
| CCc1cc(N2C(=S)N(c3cnc(C#N)c(C(F)(F)F)c3)C(=O)C2(C)C)ccc1OCCN1CCN([C@H](C)C(=O)Nc2cccc(NC3CCC(=O)NC3=O)c2)CC1 (stereo partly drawn) [Example 119, (2R)-2-(4-(2-(4-(3-(6-cyano-5-(trifluoromethyl)pyridin-3-yl)-5,5-dimethyl-4-oxo-2-thioxoimidazolidin-1-yl)-2-ethylphenoxy)ethyl)piperazin-1-yl)-N-(3-(2,6-dioxopiperidin-3-ylamino)phenyl)propanamide] | * (0<Y<=25%) | < 100 nM |
